Series [1] has as its system human subjects (washing hands). The settings on record: grades scored; 1 Very irritative, 5 Very mild; mean n = 5.
Protocol: The test compounds were evaluated using the following five grades. The intermediate grade between 1 and 3 was made 2, and that between 3 and 5 was made 4. Each grade 1, 2, 3, 4, 5 was scored as −5, −1.5, 0, 1.5, and 5, respectively, and the average of the scores was calculated for each evaluation item.
Series [2] deals with human normal keratinocytes. Nature of the series: Cytotoxicity in human normal keratinocytes, MTT method. In kind it is cell-based. The settings on record: 48 hours incubation, 1 to 10,000 ppm, pH 7, mean n = 4. The method, then: (1) A method using 3-(4,5-dimethylthiazol-2-yl)-2,5-diphenyl tetrazolium bromide (MTT method):
This is a method where the number of living cells is evaluated by determining enzyme activity related to respiratory chain present in inner membranes of mitochondria in living cells. The amount of MTT formazan produced after incorporation of MTT into cells was determined by colorimetric quantification at a wavelength of 570 nm (reference: 650 nm). [See Sugawara, et al., “Saibou Baiyou (Cell Culture) III”, 4477-4482 (1984); J. Soc. Cosmet. Chem. Jpn., 27, 498-505 (1993)].
(§1) (4) Using the above three methods for the evaluation of suppression of cytotoxicity, suppressive effects of the test compounds on cytotoxicity were determined as follows.
(In general: Formazan colour is commonly taken as a measure of viable cells.)

The subject of series [3] is human skin (forearm crook, females with roughening skin). The settings on record: 78 hours after the first treatment on day 1, 5 w/v % solution.
The subject of series [4] is human normal keratinocytes. Nature of the series: Cytotoxicity in human normal keratinocytes, neutral red (NR) method. The series is classed as cell-based. As to conditions: 48 hours incubation, 1 to 10,000 ppm, pH 7, mean n = 4. The method, then: (2) Neutral red (NR) method:
NR penetrates plasma membranes and is concentrated in lysosomes in normal cells, but is not capable of being incorporated into cells with surface damages. Thus, the NR method is a method where the number of living cells is evaluated by determining the amount of NR incorporated in living cells (the absorbance at a wavelength of 540 nm was measured), and was carried out according to the NR bioassay data book of Sanko Pure Chemicals.
as §1

The subject of series [5] is human skin (forearm crook, females with roughening skin).
Protocol: A cup of 1-cm diameter was closely fixed to the skin of a forearm crook, and 0.5 ml of a solution containing 5 w/v % test compound was poured into the cup for treatment for 30 minutes. Then, the test site was washed with tepid water and wiped with a Kim wipe.
On the next day of that when the above treatment was completed, transpiration rates of water at the treated sites were measured using a TEWA meter (TM210, supplied by Nippon Eurotech Co., Ltd.)
The test system is the same in series [6]. Nature of the series: Water content in skin after repeated cup treatment (Skicon-200). In kind it is in vivo. The settings on record: for Change of water content immediately before the treatment / Change of water content immediately after the second treatment: 5 w/v % solution; for Change of water content immediately before the treatment: twice a day; for water content in the skin, tendency in words: summary of Table 3.
Protocol: A cup of 1-cm diameter was closely fixed to the skin of a forearm crook, and 0.5 ml of a solution containing 5 w/v % test compound was poured into the cup for treatment for 30 minutes. Then, the test site was washed with tepid water and wiped with a Kim wipe. The skin was acclimated under a constant environment at a temperature of 20° C. and a relative humidity of 50% for 20 minutes, and then, the water content in skin was measured using Skicon-200 (supplied by IBS Corporation). The treatment was repeated twice a day and continued for 4 days to determine the change of the water content in skin. The water content in each site to be treated before the treatment on day 0 was defined as 100%, and the water content in each site treated with the test compound immediately before and after the treatment (after the second treatment) on each day was determined as a relative value (%).

A further series deals with IL-1α. The settings on record: mean n = 2.
The mark [7] stands for this setting: Day 1 (0 hr.), baseline defined as 100%, 30 min.
Where [8] appears, read: Day 1 (6 hr.), relative to pre-treatment = 100%.
Where [9] appears, read: Day 2 (24 hr.), relative to pre-treatment = 100%.
Where [10] appears, read: Day 2 (30 hr.), relative to pre-treatment = 100%.
[11] abbreviates: Day 3 (48 hr.), relative to pre-treatment = 100%.
[12] abbreviates: Day 3 (54 hr.), relative to pre-treatment = 100%.
[13] abbreviates: Day 4 (72 hr.), relative to pre-treatment = 100%.
Where [14] appears, read: Day 4 (78 hr.), relative to pre-treatment = 100%.

Counter-ions that a name gives are not always drawn. Like-named read-outs stand apart in the source and are kept apart here.

Protocol for IL-1α: The determination of IL-1α was carried out using an IL-1α human ELISA system supplied by Amarsham.
The cells were seeded in a 25 cm^2-flask coated with collagen and cultured at 37° C. under 5% of CO2 for 6 days.
One day after the seeding, the test compounds prepared at given concentrations (1 to 10,000 ppm, pH 7) were each added to the culture and continuously incubated for 48 hours.
Also, the release of IL-1α from the cultured cells was determined by calculating IL-1α concentration in the culture media with a lapse of time.

As to `CCCCCCCCCCCC(=O)NCCC(=O)O` [LBA, sodium salt of lauroyl β-alanine], the “Irritation (after use), average score” value in series [1] is given as 1.5. Further, the “MTT, IC50” value in series [2] was 35 ppm. Also, the Desquamation result in series [3] is given as “A little”; in series [3] (listed as lauroyl β-alanine), “lowest”. Further, the Erythema entry in series [3] is listed as “None”. Also, in series [4], the “NR, IC50” value is given as 33 ppm. For the same compound, in series [5] (summary of Table 5), the “water transpiration rate, in words” value is “lowest”. Further, the “Change of water content immediately before the treatment” value turned out to be 100% in series [6] (setting [7]), 88% in series [6] (setting [9]), 104% in series [6] (setting [11]) and 93% in series [6] (setting [13]). Besides, the “Change of water content immediately after the second treatment” value (“Change … after the second treatment” for short) in series [6] (setting [8]) is 113%; in series [6] (setting [10]), 82%; in series [6] (setting [12]) it was 104%; in series [6] (setting [14]), 101%. In series [6], the “water content in the skin, tendency in words” value (from here on “water content in the skin”) is given as “no effect on the water content was observed”.
On to “Triethanolamine N-Cocoyl-L-glutaminate [GMT]”, for which the “MTT, IC50” value in series [2] is 70 ppm. For the same compound, the “NR, IC50” value in series [4] came out at 53 ppm. Also, the “Change of water content immediately before the treatment” value in series [6] (setting [7]) is given as 100%; in series [6] (setting [9]), 135%; in series [6] (setting [11]) it was 168%; in series [6] (setting [13]), 140%. The “Change … after the second treatment” value in series [6] (setting [8]) turned out to be 124%; in series [6] (setting [10]), 126%; in series [6] (setting [12]), 128%; in series [6] (setting [14]), 120%. In addition, in series [6], the “water content in the skin” value is reported as “tendency to increase with a lapse of time”.
Consider “triethanolamine N-cocoyl glutamate [GAT]”, for which, in series [1], the “Irritation (after use), average score” value was 1.2. Further, the “MTT, IC50” value in series [2] stood at 60 ppm. In addition, the Desquamation result is on record as “Somewhat aggravated” in series [3] and “much desquamation” in series [3] (listed as N-cocoyl-L-glutamate). Moreover, the Erythema entry in series [3] was “None”. In addition, the “NR, IC50” value in series [4] was found to be 48 ppm. For the same compound, the “Relative water transpiration rates” value in series [5] (next day after the 4-day treatment, Control = 100, mean n = 4) is recorded as 138%. Moreover, the IL-1α came to 172.16 pg/well in the series with IL-1α (10 ppm test compound); 216.18 pg/well with IL-1α (30 ppm test compound); 333.05 pg/well in the series with IL-1α (60 ppm test compound); 313.78 pg/well with IL-1α (100 ppm test compound); 269.13 pg/well in the series with IL-1α (300 ppm test compound). Further, the “Change of water content immediately before the treatment” value in series [6] (setting [7]) was determined as 100%; in series [6] (setting [9]), 97%; in series [6] (setting [11]), 111%; in series [6] (setting [13]), 80%. Further, the “Change … after the second treatment” value in series [6] (setting [8]) is 88%; in series [6] (setting [10]), 76%; in series [6] (setting [12]) it was 78%; in series [6] (setting [14]), 73%. Moreover, in series [6], the “water content in the skin” value is on record as “tendency to decrease immediately after the treatment”.

For the origin of these results see patent US6517846B2, “Cosmetic composition” (Kyowa Hakko Kogyo Co., Ltd., priority 2000, dated 2003).
